Key:
[1] = for surface tension liquid-gas: Ring tensiometer; for mass density: 101.33 kPa, Liquid
[2] = xn = mol fraction of the nth substance listed; details: Ring tensiometer

CCCCCCO [hexan-1-ol]
[1], 298.15 K
Details | mass density [kg/m3] | surface tension liquid-gas [mN/m]
– | 815.02 | 25.69

CCCCCO [pentan-1-ol]
[1], 298.15 K
Details | mass density [kg/m3] | surface tension liquid-gas [mN/m]
– | 811.1 | 24.89

CCCCCCO [hexan-1-ol] + OCCO
surface tension liquid-gas [mN/m], [2]
Details | 298.15 K | 303.15 K | 308.15 K | 313.15 K | 318.15 K
x1 = 0.0429 | 32.5 | 32.81 | 32.68 | 31.55 | 31.38
x1 = 0.1009 | 29.07 | 29.49 | 29.34 | 29.27 | 28.97
x1 = 0.2761 | 28 | 27.47 | 27.31 | 27.15 | 26.91
x1 = 0.3098 | 27.9 | 27.32 | 27.19 | 27.02 | 26.8
x1 = 0.35 | 27.38 | 27.12 | 26.98 | 26.81 | 26.63
x1 = 0.3942 | 27.32 | 26.98 | 26.83 | 26.68 | 26.47
x1 = 0.4468 | 27.24 | 26.78 | 26.63 | 26.47 | 26.31
x1 = 0.5079 | 27.03 | 26.48 | 26.35 | 26.17 | 25.97
x1 = 0.5405 | 26.82 | 26.38 | 26.25 | 26.07 | 25.88
x1 = 0.6061 | 26.71 | 26.17 | 26.01 | 25.85 | 25.67
x1 = 0.6452 | 26.62 | 25.97 | 25.78 | 25.65 | 25.48
x1 = 0.6897 | 26.51 | 25.75 | 25.58 | 25.38 | 25.21
x1 = 0.7407 | 26.43 | 25.48 | 25.3 | 25.16 | 24.99
x1 = 0.8 | 26.34 | 25.38 | 25.19 | 25.02 | 24.81
x1 = 0.8333 | 26.28 | 25.25 | 25.17 | 24.98 | 24.75
x1 = 0.9091 | 26.22 | 25.16 | 24.97 | 24.78 | 24.56
x1 = 0.9524 | 26.16 | 25.02 | 24.81 | 24.61 | 24.45

OCCO [1,2-ethanediol] + CCCCCCO
[2], x2 = 0
Details | surface tension liquid-gas [mN/m]
298.15 K | 47.79
303.15 K | 47.57
308.15 K | 47.25
313.15 K | 47.1
318.15 K | 46.4

CCCCCCCO [heptan-1-ol]
Details | surface tension liquid-gas [mN/m]
[1], 298.15 K | 26.38

Details | mass density [kg/m3]
[1], 298.15 K, Vibrating tube method | 818.11

OCCO [1,2-ethanediol]
[1]
Details | surface tension liquid-gas [mN/m]
298.15 K | 47.79
303.15 K | 47.57
308.15 K | 47.25
313.15 K | 47.1
318.15 K | 46.4

— the NIST ThermoML archive (doi:10.1021/je800101v)
